These results are taken from patent US5747523A, “Substituted ethyl α,α-diarylmethyl ether derivatives” (Guilford Pharmaceuticals Inc., priority 1996, dated 1998).

Test [1] deals with T1, human dopamine transporter (Homo sapiens, UniProt Q01959).
T1 construct: expressed in transfected cells
Nature of the test: uptake to binding ratio (Kiuptake/Kibinding). The settings on record: hdat cho cells. As for the experimental part: The experimental procedures for the assay of compounds are as follows.
All assays were performed using Chinese Hamster Ovary cells stably expressing the human dopamine transporter cDNA (HDAT cells). hDAT cells were distributed in 96-well plates and grown 3 to 4 days to confluency (~10^5 cells/well) in Ham's F12 medium containing 10% fetal calf serum.

The target of test [2] is T2, cocaine binding site of the human dopamine transporter (Homo sapiens, UniProt Q01959).
T2 construct: expressed in transfected cells
Briefly: [3H]CFT binding (cocaine analogue displacement at the cocaine site of DAT). Conditions: hDAT CHO cells; 5 nM [3H]CFT; 2 h pre-incubation at 37° C., 6 min at room temperature.

The target in test [3] is T1, human dopamine transporter. Nature of the test: [3H]dopamine uptake inhibition in hDAT cells. In kind it is cell-based. Conditions: hDAT CHO cells; 100 nM [3H]dopamine; 2 h pre-incubation at 37° C., 6 min at room temperature; read-out: Effect on Dopamine Uptake (Kiuptake).
In the next test the test system is MPTP induced toxicity. The settings on record: mice; literature; cited from earlier work.
Test [4] concerns mesolimbic dopamine neurons. The settings on record: rat; literature; cited from earlier work.

T1 sequence (Q01959 whole entry): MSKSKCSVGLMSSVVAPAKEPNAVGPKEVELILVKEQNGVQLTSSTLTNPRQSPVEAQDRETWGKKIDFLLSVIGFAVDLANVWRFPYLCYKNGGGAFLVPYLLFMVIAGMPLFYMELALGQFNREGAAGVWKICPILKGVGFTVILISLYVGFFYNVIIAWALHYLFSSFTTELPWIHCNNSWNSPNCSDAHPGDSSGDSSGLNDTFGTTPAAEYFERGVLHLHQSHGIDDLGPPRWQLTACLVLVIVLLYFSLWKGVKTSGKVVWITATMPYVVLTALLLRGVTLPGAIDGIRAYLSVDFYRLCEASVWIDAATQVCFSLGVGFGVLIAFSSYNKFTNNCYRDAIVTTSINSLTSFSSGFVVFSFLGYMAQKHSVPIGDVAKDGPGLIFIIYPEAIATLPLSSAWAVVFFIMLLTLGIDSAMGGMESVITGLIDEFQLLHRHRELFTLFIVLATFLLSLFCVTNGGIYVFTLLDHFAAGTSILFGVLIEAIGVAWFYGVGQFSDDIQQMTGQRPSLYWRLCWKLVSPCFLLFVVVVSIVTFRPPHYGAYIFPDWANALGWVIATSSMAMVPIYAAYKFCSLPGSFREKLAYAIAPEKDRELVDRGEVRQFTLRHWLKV
T2 sequence (Q01959 whole entry): as above

On to `Fc1ccc(C(OCCN2CCCCC2)c2ccc(F)cc2)cc1` [1-[2-[Bis(4-fluorophenyl)methoxy]ethyl]piperidine], for which the “Uptake to Binding Ratio (Kiuptake/Kibinding)” value in test [1] is reported as 2.896. The Ki in test [2] was 211 nM; in test [3], 609 nM.
`CS(=O)(=O)O.CS(=O)(=O)O.Fc1ccc(CCCN2CCN(CCOC(c3ccc(F)cc3)c3ccc(F)cc3)CC2)cc1` [GBR 13,098]: the “preventing MPTP induced toxicity” value in the test with MPTP induced toxicity was “effective at preventing MPTP induced toxicity”.
Consider `Fc1ccc(C(OCCN2CCCC2)c2ccc(F)cc2)cc1` [1-[2-[Bis(4-fluorophenyl)methoxy]ethyl]pyrrolidine], for which the “Uptake to Binding Ratio (Kiuptake/Kibinding)” value in test [1] was 2.623. In addition, the Ki in test [2] turned out to be 361 nM; in test [3] it was 947 nM.
Take `Fc1ccc(C(OCCN2CCN(CCCc3ccccc3)CC2)c2ccc(F)cc2)cc1` [GBR 12909]: in test [4], the “attenuation of cocaine-induced activation of mesolimbic dopamine neurons” value is on record as “attenuate cocaine-induced activation of mesolimbic dopamine neurons”.
